These results are taken from US20150322112A1, “SEMA5B PEPTIDES AND VACCINES CONTAINING THE SAME” (ONCOTHERAPY SCIENCE, INC., priority 2012, published 2015).

Experiment [1] concerns peptide-pulsed TISI cells. Nature of the experiment: In vitro CTL induction with peptide-pulsed DCs, IFN-gamma ELISPOT assay. The class given is cell-based, human. The following applies: for Peptide specific CTL activity (IFN-gamma production), IFN-gamma ELISPOT: CTLs induced with the peptide, target cells pulsed with peptide vs not pulsed (control); for CTL inducibility: summary statement in the description. From the text: Monocyte-derived dendritic cells (DCs) were used as antigen-presenting cells to induce cytotoxic T lymphocyte (CTL) responses against peptides presented on human leukocyte antigen (HLA). DCs were generated in vitro as described elsewhere (Nakahara S et al., Cancer Res 2003 Jul. 15, 63(14): 4112-8). Specifically, peripheral blood mononuclear cells isolated from a normal volunteer (HLA-A*2402 positive) by Ficoll-Paque plus (Pharmacia) solution were separated by adherence to a plastic tissue culture dish (Becton Dickinson) so as to enrich them as the monocyte fraction. The monocyte-enriched population was cultured in the presence of 1000 IU/ml of granulocyte-macrophage colony-stimulating factor (R&D System) and 1000 IU/ml of interleukin (IL)-4 (R&D System) in AIM-V Medium (Invitrogen) containing 2% heatinactivated autologous serum (AS). After 7 days of culture, the cytokine-induced DCs were pulsed with 20 micro g/ml of each of the synthesized peptides in the presence of 3 micro g/ml of beta 2-microglobulin for 3 hr at 37 degrees C. in AIM-V Medium. The generated cells appeared to express DC-associated molecules, such as CD80, CD83, CD86 and HLA class II, on their cell surfaces (data not shown). These peptide-pulsed DCs were then inactivated by X ray-irradiated (20 Gy) and mixed at a 1:20 ratio with autologous CD8+ T cells, obtained by positive selection with CD8 Positive Isolation Kit (Dynal). These cultures were set up in 48-well plates (Corning); each well contained 1.5×10^4 peptide-pulsed DCs, 3×10^5 CD8+ T cells and 10 ng/ml of IL-7 (R&D System) in 0.5 ml of AIM-V/2% AS medium. Three days later, these cultures were supplemented with IL-2 (CHIRON) to a final concentration of 20 IU/ml. On day 7 and 14, the T cells were further stimulated with the autologous peptide-pulsed DCs. The DCs were prepared each time by the same way described above. CTL was tested against peptide-pulsed TISI cells after the 3rd round of peptide stimulation on day 21 (Tanaka H et al., Br J Cancer 2001 Jan 5, 84(1): 94-9; Umano Y et al., Br J Cancer 2001 Apr. 20, 84(8): 1052-7; Uchida N et al., Clin Cancer Res 2004 Dec. 15, 10(24): 8577-86; Suda T et al., Cancer Sci 2006 May, 97(5): 411-9; Watanabe T et al., Cancer Sci 2005 August, 96(8): 498-506).
(§1) Peptide-pulsed TISI (1×10^4/well) was prepared as stimulator cells. Cultured cells in 48 wells were used as responder cells. IFN-gamma ELISPOT assay and IFN-gamma ELISA were performed under manufacture procedure.

In experiment [2] the test system is peptide-pulsed TISI cells. Nature of the experiment: IFN-gamma ELISA of CTL clones established by limiting dilution. The following applies: CTL clones from limiting dilution, target cells pulsed with peptide vs not pulsed. It counts as cell-based, human. How it is done: The dilutions were made to have 0.3, 1, and 3 CTLs/well in 96 round-bottomed micro titer plate (Nalge Nunc International). CTLs were cultured with 1×10^4 cells/well of 2 kinds of human B-lymphoblastoid cell lines, 30 ng/ml of anti-CD3 antibody, and 125 IU/ml of IL-2 in a total of 150 micro 1/well of AIM-V Medium containing 5% AS. 50 micro 1/well of IL-2 were added to the medium 10 days later so to reach a final concentration of 125 IU/ml IL-2. CTL activity was tested on the 14th day, and CTL clones were expanded using the same method as described above (Uchida N et al., Clin Cancer Res 2004 Dec. 15, 10(24): 8577-86; Suda T et al., Cancer Sci 2006 May, 97(5): 411-9; Watanabe T et al., Cancer Sci 2005 August, 96(8): 498-506).
as §1
A general note: An ELISA detects its analyte on a solid surface through an enzyme-linked reagent.

For experiment [3], the system named is peptide-pulsed TISI cells. Nature of the experiment: IFN-gamma ELISA of expanded CTL lines. The class given is cell-based, human. The following applies: CTL lines stimulated with the peptide; target cells pulsed with peptide vs without peptide pulse. As for the experimental part:
CTLs were expanded in culture using the method similar to the one described by Riddell et al. (Walter E A et al., N Engl J Med 1995 October 19, 333(16): 1038-44; Riddell S R et al., Nat Med 1996 February, 2(2): 216-23). A total of 5×10^4 CTLs were suspended in 25 ml of AIM-V/5% AS medium with 2 kinds of human B-lymphoblastoid cell lines, inactivated by Mitomycin C, in the presence of 40 ng/ml of anti-CD3 monoclonal antibody (Pharmingen). One day after initiating the cultures, 120 IU/ml of IL-2 were added to the cultures. The cultures were fed with fresh AIM-V/5% AS medium containing 30 IU/ml of IL-2 on days 5, 8 and 11 (Tanaka H et al., Br J Cancer 2001 Jan 5, 84(1): 94-9; Umano Y et al., Br J Cancer 2001 Apr. 20, 84(8): 1052-7; Uchida N et al., Clin Cancer Res 2004 Dec. 15, 10(24): 8577-86; Suda T et al., Cancer Sci 2006 May, 97(5): 411-9; Watanabe T et al., Cancer Sci 2005 August, 96(8): 498-506).
as §1

Experiment [4] concerns COS7 cells transfected with SEMA5B and HLA-A*2402. Nature of the experiment: Specific CTL activity against target cells expressing SEMA5B and HLA-A*2402. It counts as cell-based, African green monkey. The following applies: CTL line established with the peptide. An excerpt: The cDNA encoding an open reading frame of target genes or HLA-A*2402 was amplified by PCR. The PCR-amplified product was cloned into expression vector. The plasmids were transfected into COS7, which is the target genes and HLA-A*2402-null cell line, using lipofectamine 2000 (Invitrogen) according to the manufacturer's recommended procedures. After 2 days from transfection, the transfected cells were harvested with versene (Invitrogen) and used as the stimulator cells (5×10^4 cells/well) for CTL activity assay.
The established CTL line raised against SEMA5B-A24-10-290 (SEQ ID NO: 41) peptide was examined for the ability to recognize target cells that express SEMA5B and HLA-A*2402 molecule. COS7 cells transfected with both the full SEMA5B and HLA-A*2402 gene (a specific model for the target cells that express SEMA5B and HLA-A*2402 gene) were prepared as a stimulator cells, and COS7 cells transfected with either full length of SEMA5B or HLA-A*2402 were used as the controls.

Entries after “also recorded” stand apart in the source; their conditions may differ. No end group written: not given here.

LYIGTESGTI [SEQ ID NO: 54, LYIGTESGTI]: the “Peptide specific CTL activity (IFN-gamma production), IFN-gamma ELISPOT” value (from here on “Peptide specific CTL activity”) in experiment [1] (listed as SEMA5B-A24-10-489) was “potent IFN-gamma production; also recorded: significant and specific CTL activity”. Besides, the CTL inducibility entry in experiment [1] is listed as “particularly high CTL inducibility”.
With CYLEELHVL [SEQ ID NO: 2, CYLEELHVL], in experiment [2] (listed as SEMA5B-A24-9-512), the “IFN-gamma production of CTL clones, IFN-gamma ELISA” value (“IFN-gamma production of CTL clones” below) is recorded as “potent IFN-gamma production”. Besides, the “IFN-gamma production of CTL lines, IFN-gamma ELISA” value (“IFN-gamma production of CTL lines” below) in experiment [3] is recorded as “potent IFN-gamma production”. Moreover, the “Peptide specific CTL activity” value in experiment [1] (listed as SEMA5B-A24-9-512) is “potent IFN-gamma production; also recorded: significant and specific CTL activity”. In addition, the CTL inducibility entry in experiment [1] is given as “particularly high CTL inducibility”.
Consider AYRSQGACL [SEQ ID NO: 20, AYRSQGACL], for which the “Peptide specific CTL activity” value in experiment [1] (listed as SEMA5B-A24-9-558) was “potent IFN-gamma production; also recorded: significant and specific CTL activity”. Further, the CTL inducibility entry in experiment [1] is listed as “particularly high CTL inducibility”.
On to AYDIGLFAYF [SEQ ID NO: 41, AYDIGLFAYF], for which the “IFN-gamma production of CTL clones” value in experiment [2] (listed as SEMA5B-A24-10-290) is “potent IFN-gamma production”. The “IFN-gamma production of CTL lines” value in experiment [3] is “potent IFN-gamma production”. The “Peptide specific CTL activity” value in experiment [1] (listed as SEMA5B-A24-10-290) was “potent IFN-gamma production; also recorded: significant and specific CTL activity”. For the same sequence, in experiment [1], the CTL inducibility entry is “particularly high CTL inducibility”. The “Specific CTL activity against control COS7 cells expressing either HLA-A*2402 or SEMA5B” value in experiment [4] (controls) is recorded as “no significant specific CTL activity”. Further, in experiment [4] (listed as SEMA5B-A24-10-290), the “Specific CTL activity against COS7 cells transfected with both SEMA5B and HLA-A*2402” value is listed as “potent CTL activity; also recorded: specific CTL activity”.
IFWASWGSW [SEQ ID NO: 8, IFWASWGSW]: the “Peptide specific CTL activity” value in experiment [1] (listed as SEMA5B-A24-9-723) is “potent IFN-gamma production; also recorded: significant and specific CTL activity”. In experiment [1], the CTL inducibility entry is listed as “particularly high CTL inducibility”.
As for VFMCGTNAF [SEQ ID NO: 4, VFMCGTNAF], in experiment [1] (listed as SEMA5B-A24-9-196), the “Peptide specific CTL activity” value is “potent IFN-gamma production; also recorded: significant and specific CTL activity”. The CTL inducibility entry in experiment [1] is listed as “particularly high CTL inducibility”.
With FYYNELQSAF [SEQ ID NO: 40, FYYNELQSAF], the “Peptide specific CTL activity” value in experiment [1] (listed as SEMA5B-A24-10-354) was “potent IFN-gamma production; also recorded: significant and specific CTL activity”. The CTL inducibility result in experiment [1] was “particularly high CTL inducibility”.
With LYAATVIDF [SEQ ID NO: 1, LYAATVIDF], in experiment [1], the “Peptide specific CTL activity” value is “no specific IFN-gamma production”.
Regarding CFLGSGLLTL [SEQ ID NO: 47, CFLGSGLLTL], the “Peptide specific CTL activity” value in experiment [1] (listed as SEMA5B-A24-10-1044) is “potent IFN-gamma production; also recorded: significant and specific CTL activity”. Further, in experiment [1], the CTL inducibility result was “particularly high CTL inducibility”.
As for KWLNEPNFV [SEQ ID NO: 9, KWLNEPNFV], in experiment [1] (listed as SEMA5B-A24-9-280), the “Peptide specific CTL activity” value was “potent IFN-gamma production; also recorded: significant and specific CTL activity”. Also, the CTL inducibility entry in experiment [1] was “particularly high CTL inducibility”.
Take RFSHLVVDL [SEQ ID NO: 13, RFSHLVVDL]: the “Peptide specific CTL activity” value in experiment [1] (listed as SEMA5B-A24-9-470) is “potent IFN-gamma production; also recorded: significant and specific CTL activity”. In addition, the CTL inducibility result in experiment [1] was “particularly high CTL inducibility”.
Regarding IGLFAYFFL [SEQ ID NO: 10, IGLFAYFFL], the “IFN-gamma production of CTL lines” value in experiment [3] was “potent IFN-gamma production”. Further, the “Peptide specific CTL activity” value in experiment [1] (listed as SEMA5B-A24-9-293) was “potent IFN-gamma production; also recorded: significant and specific CTL activity”. The CTL inducibility result in experiment [1] is given as “particularly high CTL inducibility”.
For PYSEIPVIL [SEQ ID NO: 3, PYSEIPVIL], in experiment [2] (listed as SEMA5B-A24-9-1010), the “IFN-gamma production of CTL clones” value was “potent IFN-gamma production”. Also, the “IFN-gamma production of CTL lines” value in experiment [3] is given as “potent IFN-gamma production”. In addition, the “Peptide specific CTL activity” value in experiment [1] (listed as SEMA5B-A24-9-1010) is “potent IFN-gamma production; also recorded: significant and specific CTL activity”. The CTL inducibility result in experiment [1] was “particularly high CTL inducibility”.
